Measured values reported in PubChem BioAssay (NCI).
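Five compound concentrations were applied to cells in 96-well plates for 48 hours; endpoints were derived by simple linear interpolation of the resulting dose-response curve. At the GI50, growth is halved. Definition used: TGI = concentration required for complete inhibition of growth.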

Key:
Experiment in all cases: NCI tumour cell line growth inhibition, 48 h
HCT-15 colon = tested on: HCT-15 colon
MDA-MB-231 breast = tested on: MDA-MB-231 breast
MOLT-4 leukemia = tested on: MOLT-4 leukemia
NCI-H23 lung = tested on: NCI-H23 lung
OVCAR-3 ovarian = tested on: OVCAR-3 ovarian
SF-295 CNS = tested on: SF-295 CNS
SNB-75 CNS = tested on: SNB-75 CNS
A498 renal = tested on: A498 renal
SN12C renal = tested on: SN12C renal
NCI-H460 lung = tested on: NCI-H460 lung
RXF 393 renal = tested on: RXF 393 renal
UACC-257 melanoma = tested on: UACC-257 melanoma
BT-549 breast = tested on: BT-549 breast
PC-3 prostate = tested on: PC-3 prostate
NCI/ADR-RES ovarian = tested on: NCI/ADR-RES ovarian
SK-MEL-5 melanoma = tested on: SK-MEL-5 melanoma
HOP-62 NSCLC = tested on: HOP-62 NSCLC
NCI-H226 lung = tested on: NCI-H226 lung
COLO 205 colon = tested on: COLO 205 colon
LOX IMVI melanoma = tested on: LOX IMVI melanoma
SK-MEL-28 melanoma = tested on: SK-MEL-28 melanoma
OVCAR-5 ovarian = tested on: OVCAR-5 ovarian
SK-MEL-2 melanoma = tested on: SK-MEL-2 melanoma
SNB-19 CNS = tested on: SNB-19 CNS
MDA-MB-435 = tested on: MDA-MB-435
SF-539 CNS = tested on: SF-539 CNS
CCRF-CEM leukemia = tested on: CCRF-CEM leukemia
SR leukemia = tested on: SR leukemia
M14 melanoma = tested on: M14 melanoma
RPMI-8226 leukemia = tested on: RPMI-8226 leukemia
UACC-62 melanoma = tested on: UACC-62 melanoma
786-0 renal = tested on: 786-0 renal
IGROV1 ovarian = tested on: IGROV1 ovarian
T-47D breast = tested on: T-47D breast
DU-145 prostate = tested on: DU-145 prostate
EKVX NSCLC = tested on: EKVX NSCLC
TK-10 renal = tested on: TK-10 renal
U251 CNS = tested on: U251 CNS
HCC-2998 colon = tested on: HCC-2998 colon
K-562 leukemia = tested on: K-562 leukemia
ACHN renal = tested on: ACHN renal
UO-31 renal = tested on: UO-31 renal
MDA-MB-468 breast = tested on: MDA-MB-468 breast
HOP-92 NSCLC = tested on: HOP-92 NSCLC
NCI-H522 lung = tested on: NCI-H522 lung
KM12 colon = tested on: KM12 colon
OVCAR-4 ovarian = tested on: OVCAR-4 ovarian
HL-60(TB) leukemia = tested on: HL-60(TB) leukemia
MCF7 breast = tested on: MCF7 breast
HS 578T breast = tested on: HS 578T breast
A549 NSCLC = tested on: A549 NSCLC
HCT-116 colon = tested on: HCT-116 colon
SK-OV-3 ovarian = tested on: SK-OV-3 ovarian
SF-268 CNS = tested on: SF-268 CNS
CAKI-1 renal = tested on: CAKI-1 renal
SW-620 colon = tested on: SW-620 colon
OVCAR-8 ovarian = tested on: OVCAR-8 ovarian
MALME-3M melanoma = tested on: MALME-3M melanoma
HT29 colon = tested on: HT29 colon

`CC[C@@]12CC(C(=O)OC)=C3Nc4cc5c(cc4[C@@]34CCN(C[C@H]3O[C@H]31)[C@@H]24)[C@@H]1[C@H](O5)[C@@H](O)[C@@]2(CC)CC(C(=O)OC)=C3Nc4cc(O)ccc4[C@@]34CCN1[C@@H]24` showed a GI50 (HCT-15 colon) of 173 nM, a TGI (HCT-15 colon) of 1800 nM and a GI50 (MDA-MB-231 breast) of 117 nM. For the same compound, the TGI (MDA-MB-231 breast) was 1900 nM, the GI50 (MOLT-4 leukemia) was 768 nM and the TGI (MOLT-4 leukemia) was 5320 nM. For the same compound, the GI50 (NCI-H23 lung) was 278 nM, the TGI (NCI-H23 lung) was 2370 nM and the GI50 (OVCAR-3 ovarian) was 221 nM. It also gave a TGI (OVCAR-3 ovarian) of 3580 nM, a GI50 (SF-295 CNS) of 330 nM and a TGI (SF-295 CNS) of 12700 nM. It also gave a GI50 (SNB-75 CNS) of 21.8 nM, a TGI (SNB-75 CNS) of 1190 nM and a GI50 (A498 renal) of 269 nM. For the same compound, the TGI (A498 renal) was 2560 nM, the GI50 (SN12C renal) was 439 nM and the TGI (SN12C renal) was 10900 nM. It also gave a GI50 (NCI-H460 lung) of 441 nM, a TGI (NCI-H460 lung) of 7570 nM and a GI50 (RXF 393 renal) of 763 nM. For the same compound, the TGI (RXF 393 renal) was 3890 nM, the GI50 (UACC-257 melanoma) was 199 nM and the TGI (UACC-257 melanoma) was 6890 nM. It also gave a GI50 (BT-549 breast) of 370 nM, a TGI (BT-549 breast) of 4050 nM and a GI50 (PC-3 prostate) of 380 nM. It also gave a TGI (PC-3 prostate) of 18800 nM, a GI50 (NCI/ADR-RES ovarian) of 1110 nM and a TGI (NCI/ADR-RES ovarian) of 3850 nM. For the same compound, the GI50 (SK-MEL-5 melanoma) was 154 nM, the TGI (SK-MEL-5 melanoma) was 958 nM and the GI50 (HOP-62 NSCLC) was 156 nM. It also gave a TGI (HOP-62 NSCLC) of 7580 nM, a GI50 (NCI-H226 lung) of 157 nM and a TGI (NCI-H226 lung) of 7000 nM. The GI50 (COLO 205 colon) was 158 nM, the TGI (COLO 205 colon) was 2280 nM and the GI50 (LOX IMVI melanoma) was 111 nM. The TGI (LOX IMVI melanoma) was 542 nM, the GI50 (SK-MEL-28 melanoma) was 622 nM and the TGI (SK-MEL-28 melanoma) was 15800 nM. The GI50 (OVCAR-5 ovarian) was 1330 nM, the TGI (OVCAR-5 ovarian) was 15000 nM and the GI50 (SK-MEL-2 melanoma) was 876 nM. For the same compound, the TGI (SK-MEL-2 melanoma) was 5270 nM, the GI50 (SNB-19 CNS) was 277 nM and the TGI (SNB-19 CNS) was 9060 nM. The GI50 (MDA-MB-435) was 191 nM, the TGI (MDA-MB-435) was 8940 nM and the GI50 (SF-539 CNS) was 322 nM. The TGI (SF-539 CNS) was 11600 nM, the GI50 (CCRF-CEM leukemia) was 4380 nM and the TGI (CCRF-CEM leukemia) was 56000 nM. It also gave a GI50 (SR leukemia) of 79.3 nM, a TGI (SR leukemia) of 7690 nM and a GI50 (M14 melanoma) of 239 nM. The TGI (M14 melanoma) was 19200 nM, the GI50 (RPMI-8226 leukemia) was 109 nM and the TGI (RPMI-8226 leukemia) was 13700 nM. The GI50 (UACC-62 melanoma) was 49.1 nM, the TGI (UACC-62 melanoma) was 1170 nM and the GI50 (786-0 renal) was 188 nM. For the same compound, the TGI (786-0 renal) was 10000 nM, the GI50 (IGROV1 ovarian) was 254 nM and the TGI (IGROV1 ovarian) was 2930 nM. It also gave a GI50 (T-47D breast) of 143 nM, a TGI (T-47D breast) of 10400 nM and a GI50 (DU-145 prostate) of 1720 nM. It also gave a TGI (DU-145 prostate) of 11500 nM, a GI50 (EKVX NSCLC) of 439 nM and a TGI (EKVX NSCLC) of 16700 nM. It also gave a GI50 (TK-10 renal) of 128 nM, a TGI (TK-10 renal) of 3310 nM and a GI50 (U251 CNS) of 317 nM. For the same compound, the TGI (U251 CNS) was 4770 nM, the GI50 (HCC-2998 colon) was 145 nM and the TGI (HCC-2998 colon) was 735 nM. It also gave a GI50 (K-562 leukemia) of 134 nM, a TGI (K-562 leukemia) of 7900 nM and a GI50 (ACHN renal) of 363 nM. It also gave a TGI (ACHN renal) of 12800 nM, a GI50 (UO-31 renal) of 132 nM and a TGI (UO-31 renal) of 6080 nM. The GI50 (MDA-MB-468 breast) was 55.3 nM, the TGI (MDA-MB-468 breast) was 320 nM and the GI50 (HOP-92 NSCLC) was 127 nM. The TGI (HOP-92 NSCLC) was 11000 nM, the GI50 (NCI-H522 lung) was 51.5 nM and the TGI (NCI-H522 lung) was 752 nM. It also gave a GI50 (KM12 colon) of 273 nM, a TGI (KM12 colon) of 4520 nM and a GI50 (OVCAR-4 ovarian) of 232 nM. It also gave a TGI (OVCAR-4 ovarian) of 14700 nM, a GI50 (HL-60(TB) leukemia) of 35.1 nM and a TGI (HL-60(TB) leukemia) of 295 nM. It also gave a GI50 (MCF7 breast) of 45.2 nM, a TGI (MCF7 breast) of 6010 nM and a GI50 (HS 578T breast) of 105 nM. It also gave a TGI (HS 578T breast) of 2860 nM, a GI50 (A549 NSCLC) of 381 nM and a TGI (A549 NSCLC) of 11100 nM. The GI50 (HCT-116 colon) was 199 nM, the TGI (HCT-116 colon) was 1760 nM and the GI50 (SK-OV-3 ovarian) was 149 nM. It also gave a TGI (SK-OV-3 ovarian) of 6220 nM, a GI50 (SF-268 CNS) of 1300 nM and a TGI (SF-268 CNS) of 13400 nM. It also gave a GI50 (CAKI-1 renal) of 61.9 nM, a TGI (CAKI-1 renal) of 6290 nM and a GI50 (SW-620 colon) of 530 nM. It also gave a TGI (SW-620 colon) of 5250 nM, a GI50 (OVCAR-8 ovarian) of 424 nM and a TGI (OVCAR-8 ovarian) of 15700 nM. For the same compound, the GI50 (MALME-3M melanoma) was 201 nM, the TGI (MALME-3M melanoma) was 2640 nM and the GI50 (HT29 colon) was 142 nM. It also gave a TGI (HT29 colon) of 7450 nM.
